Molecular target: Human immunodeficiency virus type 1 protease (Human immunodeficiency virus 1, UniProt Q72874)
Assay: The compound was evaluated for its inhibition constant against HIV-1 protease (HIV PR)

Row | Ki | Structure (SMILES)
1 | 3 µM | O[C@@H]1[C@@H](O)[C@@H](Cc2ccccc2)N(Cc2ccccc2)C(=NOCc2ccccc2)N(Cc2ccccc2)[C@@H]1Cc1ccccc1
2 | 0.042 µM | ON=C1N(Cc2ccccc2)[C@H](Cc2ccccc2)[C@H](O)[C@@H](O)[C@@H](Cc2ccccc2)N1Cc1ccccc1

Reference: ChEMBL document CHEMBL1130508, “Synthesis of 7-membered cyclic hydroxyguanidines: Novel HIV-1 protease inhibitors” (Bioorg Med Chem Lett, 1997)
